Measurements taken from patent EP4803525A1 (Hefei Institute of Pharmaceutical Industry Co., Ltd., priority 2023, dated 2025).
pIC50: −log10 of the molar value. Where two headings read alike, the source gives them in different places.

Experiments:
hERG potassium channel = target: T1, hERG potassium channel (Homo sapiens, UniProt Q12809); experiment: hERG whole-cell patch-clamp test in HEK-293 cells; format: cell-based
T1 construct: host or cells: HEK-293
Protocol: HEK-293 cell line stably expressing hERG potassium channels (purchased from Creacell, catalog number: A-0320) was used. HEK293 cell lines were cultured in DMEM medium containing 10% fetal bovine serum and 0.8 mg/mL G418 at a temperature of 37°C and a carbon dioxide concentration of 5%. For patch-clamp assays, cells were separated using TrypLE™ Express before the assay. 4 × 10^3 cells were seeded onto coverslips and cultured in 24-well plates (final volume: 500 µL). The assays were performed 18 hours later.
Whole-cell patch-clamp test: after whole-cell sealing is achieved, the cell membrane voltage is clamped to -80mV. […] Data was collected every 10 seconds to observe the effect of the drug on hERG tail current. A -50 mV stimulus of 0.5 s was used as the leakage current detection. Experimental data were collected by the EPC-10 amplifier and stored in the software. Once the hERG current recorded in whole cells stabilized, drug administration began. Each drug concentration was administered for 5 minutes (or the current stabilized) before the next concentration was measured.

PDE4B2 = target: T2, PDE4B2 (Homo sapiens, UniProt Q07343); experiment: Inhibitory activity against PDE4B enzyme (AMP-Glo detection); format: biochemical
T2 construct: purchased BPS bioscience
Protocol: 2.1 Compound preparation and treatment: all compounds were prepared into 50 mM stock solutions using dimethyl sulfoxide.
2.2 Preparation of working stock solution: a) the reference rolipram was serially diluted 3 times with dimethyl sulfoxide starting from 2 mmol, to a total of 10 concentrations. b) 2 mmol of the compound of the present invention was serially diluted three times with dimethyl sulfoxide (DMSO) to a total of 10 concentrations. c) A 200X positive control (2 mM rolipram) and a 200X vector control (100% dimethyl sulfoxide) were prepared. d) The compound plate was centrifuged at 1000 rpm for 1 minute.
• a) An Echo 550 was used to transfer 20 nL of compound dilution to each well of the detection plate. • b) The test plate was sealed and centrifuged at 1000 rpm for 1 minute. • c) 2X PDE4B2 was prepared in frozen PDE detection buffer. • d) 2 µL of 2X PDE4B2 was added to each well of the detection plate (prepared in step b). • e) The test plate was sealed and incubated for 10 minutes under RT conditions. • f) 2X Cyclic-3',5'-AMP was prepared in PDE detection buffer. • g) 2 µl of 2X Cyclic-3',5'-AMP (prepared in step f) was added to each well of the detection plate (prepared in step e) to initiate the reaction. Incubation was performed at room temperature for 60 minutes. • h) 4 µL of AMP-Glo reagent I was added. • i) 8 µL of AMP detection solution was added. Incubation was performed at room temperature for 60 minutes. • k) The RLU signal was read on the Envision 2105 reader.

[1] = HEK-293 cells stably expressing hERG, whole-cell patch clamp, 0.03-30 µM, read-out: h ERG IC50

T1 sequence (Q12809 whole entry): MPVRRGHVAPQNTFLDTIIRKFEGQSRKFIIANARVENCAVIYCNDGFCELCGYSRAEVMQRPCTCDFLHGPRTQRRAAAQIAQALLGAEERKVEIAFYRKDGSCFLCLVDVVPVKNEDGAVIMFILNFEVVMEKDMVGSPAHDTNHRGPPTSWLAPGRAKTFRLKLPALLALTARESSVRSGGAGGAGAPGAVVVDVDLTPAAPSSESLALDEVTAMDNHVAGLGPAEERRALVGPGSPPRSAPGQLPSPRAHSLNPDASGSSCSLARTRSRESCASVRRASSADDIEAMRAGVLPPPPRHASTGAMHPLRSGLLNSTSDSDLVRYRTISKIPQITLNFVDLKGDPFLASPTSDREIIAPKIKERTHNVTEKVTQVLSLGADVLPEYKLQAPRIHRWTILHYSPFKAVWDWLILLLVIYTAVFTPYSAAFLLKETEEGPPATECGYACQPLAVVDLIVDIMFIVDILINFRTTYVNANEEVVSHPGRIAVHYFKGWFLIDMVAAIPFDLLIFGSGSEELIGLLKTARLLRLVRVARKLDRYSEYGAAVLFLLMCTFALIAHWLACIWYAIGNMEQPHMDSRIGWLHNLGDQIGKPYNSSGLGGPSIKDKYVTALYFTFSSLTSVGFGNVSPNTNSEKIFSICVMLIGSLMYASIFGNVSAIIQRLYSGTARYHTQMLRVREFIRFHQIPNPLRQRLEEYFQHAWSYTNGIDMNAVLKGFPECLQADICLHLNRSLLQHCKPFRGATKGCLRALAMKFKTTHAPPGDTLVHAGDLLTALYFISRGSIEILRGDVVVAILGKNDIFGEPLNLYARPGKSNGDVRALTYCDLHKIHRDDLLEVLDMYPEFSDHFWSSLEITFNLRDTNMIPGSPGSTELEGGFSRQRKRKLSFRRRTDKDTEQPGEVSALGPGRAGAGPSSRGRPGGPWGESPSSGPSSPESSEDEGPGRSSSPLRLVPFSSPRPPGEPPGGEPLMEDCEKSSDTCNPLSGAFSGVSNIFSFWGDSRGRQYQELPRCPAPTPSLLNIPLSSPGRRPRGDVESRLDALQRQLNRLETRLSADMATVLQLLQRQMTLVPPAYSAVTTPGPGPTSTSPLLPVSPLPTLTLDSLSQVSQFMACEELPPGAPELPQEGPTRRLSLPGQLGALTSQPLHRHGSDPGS
T2 sequence (Q07343 1-564 isoform Q07343-2): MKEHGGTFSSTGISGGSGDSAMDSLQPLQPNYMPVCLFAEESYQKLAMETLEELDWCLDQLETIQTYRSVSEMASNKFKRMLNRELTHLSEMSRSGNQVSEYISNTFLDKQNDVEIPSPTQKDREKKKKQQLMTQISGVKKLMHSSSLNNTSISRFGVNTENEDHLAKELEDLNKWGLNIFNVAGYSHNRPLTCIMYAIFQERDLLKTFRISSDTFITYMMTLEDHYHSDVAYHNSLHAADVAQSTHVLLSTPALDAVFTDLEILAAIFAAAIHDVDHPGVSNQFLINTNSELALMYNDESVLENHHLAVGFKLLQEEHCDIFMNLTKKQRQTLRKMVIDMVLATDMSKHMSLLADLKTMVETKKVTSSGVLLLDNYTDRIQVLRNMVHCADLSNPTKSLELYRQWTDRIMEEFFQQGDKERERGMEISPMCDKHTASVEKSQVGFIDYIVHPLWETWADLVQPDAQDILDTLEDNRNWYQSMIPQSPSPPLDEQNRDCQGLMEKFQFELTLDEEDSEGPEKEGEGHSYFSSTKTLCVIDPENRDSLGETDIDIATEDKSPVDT

Structure (SMILES) | pIC50 (hERG potassium channel; [1]) | pIC50 (PDE4B2) | pIC50 (hERG potassium channel)
[O-][S+]1CCc2nc(N3CC4(CN(c5ncc(Cl)cn5)C4)C3)nc(NC3(CO)CCC3)c21 (stereo not drawn) [Example 8] | < 4.52 | 7.00 to 7.70 | –
CC(C)(C)CNC(=O)Cc1ccc(Nc2nc(N3CCC(c4ncc(Cl)cn4)CC3)nc3c2S(=O)(=O)CCC3)cc1F [Example 24, 2-(4-((2-(4-(5-chloropyrimidin-2-yl)piperidin-1-yl)-5,5-dioxo-7,8-dihydro-6H -thiapyrano[3,2-d]pyrimidin-4-yl)amino)-2-fluorophenyl) -N-neopentylacetamide] | – | – | < 4.52
O=C(c1ncc(Cl)cn1)N1CCN(c2nc3c(c(NC4(CO)CCC4)n2)[S+]([O-])CC3)CC1 (stereo not drawn) [Example 3, (5-chloropyrimidin-2-yl)(4-(4-((1-(hydroxymethyl)cyclobutyl)amino)-5-oxo-6,7-dihydrothieno[3,2-d]pyrimidin-2-yl)piperazin-1-yl)methanone] | < 4.52 | – | –
[O-][S+]1CCc2nc(N3CCN(Cc4ncc(Cl)cn4)CC3)nc(NC3(CO)CCC3)c21 (stereo not drawn) [Example 2, 2-(4-((S-chloropyrimidin-2-yl)methyl)piperazin-1-yl)-4-((1-(hydroxymethyl)cyclobutyl)amino)-6,7-dihydrothiopheno[3,2-d]pyrimidine 5-oxide] | < 4.52 | 7.00 to 7.70 | –
O=C(O)Cc1c(F)cc(Nc2nc(N3CCC(c4ncc(Cl)cn4)CC3)nc3c2S(=O)(=O)CCC3)cc1F [Example 22, 2-(4-((2-(4-(5-chloropyrimidin-2-yl)piperidin-1-yl)-5,5-dioxo-7,8-dihydro-6H -thiapyrano[3,2-d]pyrimidin-4-yl)amino)-2,6-difluorophenyl)acetic acid] | < 4.52 | 7.70 to 9.00 | –
O=C(O)Cc1ccc(Nc2nc(N3CC=C(c4ncc(Cl)cn4)CC3)nc3c2S(=O)(=O)CCC3)cc1F [Example 18, 2-(4-((2-(4-(5-chloropyrimidin-2-yl)-3,6-dihydropyridin-1(2H)-yl)-5,5-dioxo-7,8-dihydro-6H -thiapyrano[3,2-d]pyrimidin-4-yl)amino)-2-fluorophenyl)acetic acid] | – | > 9.00 | –
O=C(O)C1(c2ccc(Nc3nc(N4CC=C(c5ncc(Cl)cn5)CC4)nc4c3S(=O)(=O)CCC4)cc2F)CCC1 [Example 26, 1-(4-((2-(4-(5-chloropyrimidin-2-yl)-3,6-dihydropyridin-1(2H)-yl)-5,5-dioxo-7,8-dihydro-6H -thiapyrano[3,2-d]pyrimidin-4-yl)amino)-2-fluorophenyl)cyclobutane-1-carboxylic acid] | < 4.52 | – | –
Cc1ccc(O)c(C(=O)NC2CCN(c3nc4c(c(NC5(CO)CCC5)n3)[S+]([O-])CC4)CC2)c1 (stereo not drawn) [Example 7, 2-hydroxyl-N-(1-(4-((1-(hydroxymethyl)cyclobutyl)amino)-5-oxo-6,7-dihydrothiapheno[3,2-d]pyrimidin-2-yl)piperidin-4-yl)-5-methylbenzamide] | < 4.52 | 7.70 to 9.00 | –
[O-][S+]1CCc2nc(N3CC=C(c4ncc(Cl)cn4)CC3)nc(NC3(CO)CCC3)c21 (stereo not drawn) [Example 1, 2-(4-(5-chloropyrimidin-2-yl)-3,6-dihydropyridin-1(2H)-yl)-4-((1-(hydroxymethyl)cyclobutyl)amino)-6,7-dihydrothiopheno[3,2-d]pyrimidine-5-oxide] | 4.84 | – | –
O=C(O)C1(c2ccc(Nc3nc(N4CCC(c5ncc(Cl)cn5)CC4)nc4c3S(=O)(=O)CCC4)cc2F)CCC1 [Example 25, 1-(4-((2-(4-(5-chloropyrimidin-2-yl)piperidin-1-yl)-5,5-dioxo-7,8-dihydro-6H -thiapyrano[3,2-d]pyrimidin-4-yl)amino)-2-fluorophenyl)cyclobutane-1-carboxylic acid] | – | 7.70 to 9.00 | –
O=S1(=O)CCc2nc(N3CCC(c4ncc(Cl)cn4)CC3)nc(NC3(CO)CCC3)c21 [Example 4] | < 4.52 | 7.00 to 7.70 | –
O=C(O)C1(c2ccc(Nc3nc(N4CCC(c5ncc(Cl)cn5)CC4)nc4c3S(=O)(=O)CCC4)cc2F)CC1 [Example 23, 1-(4-((2-(4-(5-chloropyrimidin-2-yl)piperidin-1-yl)-5,5-dioxo-7,8-dihydro-6H-thiapyrano[3,2-d]pyrimidin-4-yl)amino)-2-fluorophenyl)cyclopropane-1-carboxylic acid] | – | 7.70 to 9.00 | –
O=C(O)Cc1ccc(Nc2nc(N3CCN(c4ncc(Cl)cn4)CC3)nc3c2S(=O)(=O)CCC3)cc1F [Example 27, 2-(4-((2-(4-(5-chloropyrimidin-2-yl)piperazin-1-yl)-5,5-dioxo-7,8-dihydro-6H -thiapyrano[3,2-d]pyrimidin-4-yl)amino)-2-fluorophenyl)acetic acid] | – | 7.70 to 9.00 | –
O=C(O)Cc1ccc(Nc2nc(N3CC=C(c4ncc(Cl)cn4)CC3)nc3c2[S+]([O-])CC3)cc1F (stereo not drawn) [Example 14, 2-(4-((2-(4-(5-chloropyrimidin-2-yl)-3,6-dihydropyridin-1(2H)-yl)-5-oxo-6,7-dihydrothiopheno[3,2-d]pyrimidin-4-yl)amino)-2-fluorophenyl)acetic acid] | < 4.52 | – | –
O=C(O)Cc1ccc(Nc2nc(N3CCC(c4ncc(Cl)cn4)CC3)nc3c2S(=O)(=O)CCC3)cc1Cl [Example 21, 2-(2-chloro-4-((2-(4-(5-chloropyrimidin-2-yl)piperidin-1-yl)-5,5-dioxo-7,8-dihydro-6H -thiapyrano[3,2-d]pyrimidin-4-yl)amino)phenyl)acetic acid] | < 4.52 | 7.70 to 9.00 | –
